Entries after “also recorded” stand apart in the source; their conditions may differ.
Columns and labels:
[1] = tested on: human aortic SMCs (AoSMCs); test: Immunocytochemistry and morphometry of elastic fibers in AoSMC cultures; type: cell-based; conditions: 24-hour treatment, 0.5 to 100 nmol/L insulin, confluent AoSMCs, 2% FBS
Description: Human aortic SMCs (AoSMCs) were propagated from small fragments of aortic media collected from autopsy. Guidelines for the protection of human subjects of the US Department of Health and Human Services and of the Declaration of Helsinki were followed in obtaining tissues for this investigation. Cells migrating from the cultured explants of aortic media were routinely passaged (up to three times) via trypsinization using 0.2% trypsin-0.02% EDTA, and were maintained in DMEM supplemented with 5% FBS and 1% antibiotic-antimycotic mix. The second and third passages of cells that migrated from the original explants of aortic media were routinely probed with antibodies recognizing the SMC-specific α-actin to monitor the preservation of the SMC phenotype. All cells were initially plated at 100,000 cells per dish for immediate confluency so they would begin extracellular matrix production. The cell cultures committed to particular experiments were then transferred to DMEM containing either 2% FBS or to serum-free medium before initiation of particular treatments.
At the end of treatments, confluent cultures of AoSMCs were fixed in cold 100% methanol at −20° C. for 30 minutes, and blocked with 1% normal goat serum for 1 hour. The cultures were then incubated for 1 hour with 10 μg/mL polyclonal antibodies to tropoelastin and/or with 10 μg/mL monoclonal antibody to SMC-specific α-actin. All cultures were then incubated for another hour with the respective fluorescein-conjugated secondary antibodies (fluorescein-conjugated goat anti-rabbit or anti-mouse). Nuclei were counterstained with red-fluorescent propidium iodide or blue-fluorescent DAPI. The cultures were then mounted in ethanol and examined using a microscope (Eclipse E1000; Nikon Instruments, Inc., Melville, N.Y.) attached to a cooled CCD camera (Retiga EX; QImaging Corp., Vancouver, BC, Canada) and a computer-generated morphometric analysis system (Image-Pro Plus software; Media Cybernetics, Inc., Bethesda, Md.). In each analyzed group, 50 low-power fields from three separate cultures were analyzed, and the areas occupied by immunodetectable elastic fibers were expressed as a percentage of the entire analyzed field.

[2] = target: T1, IGF-1R (Homo sapiens, UniProt P08069); test: Immunoprecipitation and anti-phospho-Tyr blotting of IGF-1R; type: cell-based; conditions: 30 minutes, 0.5 to 10 nmol/L insulin or 10 nmol/L IGF-1, AoSMCs
T1 construct: 30-minute treatment of cultured AoSMCs; endogenous in cells; host or cells: human aortic smooth muscle cells (AoSMCs), second passage
Method: At the end of indicated treatments, the cultured cells were lysed as described, and 300 μL aliquots of cell extracts containing 300 μL proteins were incubated at 4° C. for 3 hours with the aliquots of protein G bound DYNABEADS® (Invitrogen Corp.) that were conjugated with either rabbit polyclonal anti-tropoelastin, goat polyclonal anti-Glut10, or rabbit polyclonal anti-S-Gal antibodies. The beads carrying the final immunoprecipitation products were then washed with PBS, resuspended in sample buffer, and boiled for 5 minutes. The released proteins were then resolved on SDS-PAGE gel and subjected to Western blotting using indicated antibodies.

[3] = tested on: tropoelastin mRNA; test: RT-PCR assay of tropoelastin mRNA; type: cell-based, human; conditions: 10 nmol/L insulin
Method: At the end of the treatments, total RNA was extracted from quadruplicate cultures in each experimental group using the RNEASY® (RNA isolation) Mini Kit. One microgram total RNA from each sample was added to one-step RT-PCR (One-Step RT-PCR Kit; Qiagen, Inc.). The reactions were set up in a total volume of 25 μL. The reverse transcription step was performed for elastin and 18S ribosomal RNA reactions at 50° C. for 30 minutes, followed by 15 minutes at 95° C. The elastin PCR reaction using sense primer 5′[…]-3′ (SEQ ID NO 1) and antisense primer 5′[…]3′ (SEQ ID NO 2). The products were analyzed using ethidium bromide staining and densitometry-based image analysis using an optical system (Gel Doc 1000; Bio-Rad Laboratories, Inc., Hercules, Calif.). The amount of tropoelastin mRNA was standardized relative to the amount of 18S ribosomal RNA and expressed as percentage of control values.

[4] = tested on: cdk-2; test: Western blotting of cdk-2 phosphorylation; type: cell-based, human; conditions: 30-minute treatment, 10 nmol/L insulin
Description: (§1) At the end of all treatments, cells from quadruplicate cultures in each experimental group were lysed using NP40 cell lysis buffer (Invitrogen Corp.). Thirty micrograms of protein extracts from each sample was suspended in standard sample buffer, resolved on 4% to 12% gradient SDS-PAGE gels, transferred to nitrocellulose membranes, and subjected to Western blotting using antibodies.

[5] = tested on: retinoblastoma protein; test: Western blotting of retinoblastoma protein phosphorylation; type: cell-based, human; conditions: 30-minute treatment, 10 nmol/L insulin
Description: as §1

- phosphorylation of IGF-1R [2]: did not affect phosphorylation
Substance: insulin
- production of immunodetected elastic fibers [1]: dose-dependent increase; also recorded: induce new elastogenesis in a dose-dependent manner
- time of peak up-regulation of tropoelastin mRNA [3]: 8 h
- tropoelastin mRNA level ([3]; in 4 hours (time course)): significant up-regulation
- tropoelastin mRNA level ([3]; 8-hour treatment, serum-free): induced significant up-regulation
- phosphorylation of cdk-2 on tyrosine 160 [4]: did not induce phosphorylation
- site-specific phosphorylation of retinoblastoma protein on threonine 821 [5]: did not
